We go through 21 compounds from ChEMBL document CHEMBL3044821, “Microwave-induced CAN promoted atom-economic synthesis of 1H-benzo[b]xanthene and 4H-benzo[g]chromene derivatives of N-allyl quinolone and their antimicrobial activity” (2013).

Converted amounts (≈) assume the structure as drawn.

What all share (type): functional
Experiment [1] has as its system Streptococcus pyogenes. The experiment in a line: Antibacterial activity against Streptococcus pyogenes MTCC 442 assessed as growth inhibition after 24 to 48 hr by NCCLS broth microdilution method.
Experiment [2] relates to Candida albicans. The experiment is described as follows: Antifungal activity against Candida albicans MTCC 227 assessed as growth inhibition after 24 to 48 hr by NCCLS broth microdilution method.
The subject of experiment [3] is Aspergillus clavatus. The experiment in a line: Antifungal activity against Aspergillus clavatus MTCC 1323 assessed as growth inhibition after 24 to 48 hr by NCCLS broth microdilution method.
Experiment [4] concerns Aspergillus niger. The experiment in a line: Antifungal activity against Aspergillus niger MTCC 282 assessed as growth inhibition after 24 to 48 hr by NCCLS broth microdilution method.
The test system of experiment [5] is Staphylococcus aureus. The experiment is described as follows: Antibacterial activity against Staphylococcus aureus MTCC 96 assessed as growth inhibition after 24 to 48 hr by NCCLS broth microdilution method.
The test system of experiment [6] is Escherichia coli. The experiment in a line: Antibacterial activity against Escherichia coli MTCC 443 assessed as growth inhibition after 24 to 48 hr by NCCLS broth microdilution method.
Experiment [7] deals with Pseudomonas aeruginosa. The experiment is described as follows: Antibacterial activity against Pseudomonas aeruginosa MTCC 1688 assessed as growth inhibition after 24 to 48 hr by NCCLS broth microdilution method.

As to `C=CCn1c(=O)c(C2C3=C(CC(C)(C)CC3=O)OC3=C2C(=O)c2ccccc2C3=O)cc2ccccc21` (stereo not drawn), the MIC is 200 µg/mL (≈ 407 µM) in experiment [1]; > 1000 µg/mL in experiment [2]; > 1000 µg/mL in experiment [3]; > 1000 µg/mL in experiment [4]; 250 µg/mL (≈ 509 µM) in experiment [5]; 100 µg/mL (≈ 203 µM) in experiment [6]. The MIC in experiment [7] worked out at 100 µg/mL (≈ 203 µM).

For `COC1=CC(=O)C[C@@H](C)[C@]12Oc1c(Cl)c(OC)cc(OC)c1C2=O` [GRISEOFULVIN], the MIC in experiment [2] worked out at 500 µg/mL (≈ 1420 µM); in experiment [3] it was 100 µg/mL (≈ 283 µM); in experiment [4], 100 µg/mL (≈ 283 µM).

`C=CCn1c(=O)c(C2C(C#N)=C(N)OC3=C2C(=O)c2ccccc2C3=O)cc2cc(Cl)ccc21` (stereo not drawn): the MIC came to 100 µg/mL (≈ 213 µM) in experiment [1]; 500 µg/mL (≈ 1060 µM) in experiment [2]; 100 µg/mL (≈ 213 µM) in experiment [3]; 1000 µg/mL (≈ 2130 µM) in experiment [4]; 500 µg/mL (≈ 1060 µM) in experiment [5]; 200 µg/mL (≈ 426 µM) in experiment [6]. In experiment [7], the MIC was determined as 500 µg/mL (≈ 1060 µM).

With `C=CCn1c(=O)c(C2C3=C(CC(C)(C)CC3=O)OC3=C2C(=O)c2ccccc2C3=O)cc2cc(C)ccc21` (stereo not drawn), the MIC in experiment [1] was 250 µg/mL (≈ 494 µM); in experiment [2], > 1000 µg/mL; in experiment [3] it was 1000 µg/mL (≈ 1980 µM); in experiment [4] it was 125 µg/mL (≈ 247 µM); in experiment [5] it was 500 µg/mL (≈ 989 µM); in experiment [6] it was 62.5 µg/mL (≈ 124 µM). In addition, in experiment [7], the MIC was 500 µg/mL (≈ 989 µM).

As to `C=CCn1c(=O)c(C2C3=C(CCCC3=O)OC3=C2C(=O)c2ccccc2C3=O)cc2cc(Cl)ccc21` (stereo not drawn), the MIC came to 50 µg/mL (≈ 100 µM) in experiment [1]; 500 µg/mL (≈ 1000 µM) in experiment [2]; 100 µg/mL (≈ 201 µM) in experiment [3]; 1000 µg/mL (≈ 2010 µM) in experiment [4]; 500 µg/mL (≈ 1000 µM) in experiment [5]; 250 µg/mL (≈ 502 µM) in experiment [6]. Besides, the MIC in experiment [7] amounted to 62.5 µg/mL (≈ 126 µM).

Regarding `C=CCn1c(=O)c(C2C(C#N)=C(N)OC3=C2C(=O)c2ccccc2C3=O)cc2cc(OC)ccc21` (stereo not drawn), the MIC in experiment [1] was 200 µg/mL (≈ 430 µM); in experiment [2], 1000 µg/mL (≈ 2150 µM); in experiment [3] it was 1000 µg/mL (≈ 2150 µM); in experiment [4], > 1000 µg/mL; in experiment [5], 250 µg/mL (≈ 537 µM); in experiment [6], 125 µg/mL (≈ 269 µM). Further, the MIC in experiment [7] worked out at 200 µg/mL (≈ 430 µM).

Regarding `O=C(O)c1cn(C2CC2)c2cc(N3CCNCC3)c(F)cc2c1=O` [CIPROFLOXACIN], the MIC in experiment [1] was determined as 50 µg/mL (≈ 151 µM); in experiment [5], 50 µg/mL (≈ 151 µM); in experiment [6] it was 25 µg/mL (≈ 75.4 µM).

Turning to NYSTATIN, the MIC in experiment [2], in experiment [3] and in experiment [4] was 100 µg/mL in each case.

Turning to `C=CCn1c(=O)c(C2C3=C(CC(C)(C)CC3=O)OC3=C2C(=O)c2ccccc2C3=O)cc2cc(OC)ccc21` (stereo not drawn), the MIC was 250 µg/mL (≈ 479 µM) in experiment [1]; 1000 µg/mL (≈ 1920 µM) in experiment [2]; 500 µg/mL (≈ 959 µM) in experiment [3]; 500 µg/mL (≈ 959 µM) in experiment [4]; 500 µg/mL (≈ 959 µM) in experiment [5]; 125 µg/mL (≈ 240 µM) in experiment [6]. In addition, in experiment [7], the MIC came to 100 µg/mL (≈ 192 µM).

In the case of `C=CCn1c(=O)c(C2C3=C(CCCC3=O)OC3=C2C(=O)c2ccccc2C3=O)cc2cc(C)ccc21` (stereo not drawn), the MIC in experiment [1] amounted to 250 µg/mL (≈ 524 µM); in experiment [2], 500 µg/mL (≈ 1050 µM); in experiment [3], 1000 µg/mL (≈ 2090 µM); in experiment [4], 1000 µg/mL (≈ 2090 µM); in experiment [5] it was 250 µg/mL (≈ 524 µM); in experiment [6], 500 µg/mL (≈ 1050 µM). For the same compound, the MIC in experiment [7] was 250 µg/mL (≈ 524 µM).

As to `CC1(C)S[C@@H]2[C@H](NC(=O)[C@H](N)c3ccccc3)C(=O)N2[C@H]1C(=O)O` [AMPICILLIN], the MIC in experiment [1] was 100 µg/mL (≈ 286 µM); in experiment [5], 250 µg/mL (≈ 715 µM); in experiment [6], 100 µg/mL (≈ 286 µM).

In the case of `C=CCn1c(=O)c(C2C(C(=O)OC(C)C)=C(N)OC3=C2C(=O)c2ccccc2C3=O)cc2cc(C)ccc21` (stereo not drawn), the MIC in experiment [1] was 500 µg/mL (≈ 979 µM); in experiment [2], > 1000 µg/mL; in experiment [3], 500 µg/mL (≈ 979 µM); in experiment [4] it was 1000 µg/mL (≈ 1960 µM); in experiment [5], 125 µg/mL (≈ 245 µM); in experiment [6] it was 25 µg/mL (≈ 49 µM). Further, the MIC in experiment [7] was 250 µg/mL (≈ 490 µM).

Take `C=CCn1c(=O)c(C2C3=C(CC(C)(C)CC3=O)OC3=C2C(=O)c2ccccc2C3=O)cc2cc(Cl)ccc21` (stereo not drawn): the MIC in experiment [1] is 500 µg/mL (≈ 951 µM); in experiment [2] it was > 1000 µg/mL; in experiment [3] it was 100 µg/mL (≈ 190 µM); in experiment [4], 1000 µg/mL (≈ 1900 µM); in experiment [5], 200 µg/mL (≈ 380 µM); in experiment [6], 200 µg/mL (≈ 380 µM). For the same compound, the MIC in experiment [7] stood at 250 µg/mL (≈ 475 µM).

Consider `C=CCn1c(=O)c(C2C(C#N)=C(N)OC3=C2C(=O)c2ccccc2C3=O)cc2ccccc21` (stereo not drawn), for which the MIC in experiment [1] is 250 µg/mL (≈ 574 µM); in experiment [2], 250 µg/mL (≈ 574 µM); in experiment [3], > 1000 µg/mL; in experiment [4] it was 500 µg/mL (≈ 1150 µM); in experiment [5], 62.5 µg/mL (≈ 144 µM); in experiment [6], 100 µg/mL (≈ 230 µM). Further, the MIC in experiment [7] came out at 250 µg/mL (≈ 574 µM).

For `O=C(N[C@H](CO)[C@H](O)c1ccc([N+](=O)[O-])cc1)C(Cl)Cl` [CHLORAMPHENICOL], the MIC in experiment [1], in experiment [5], in experiment [6] and in experiment [7] was 50 µg/mL (≈ 155 µM) in each case.

Turning to `C=CCn1c(=O)c(C2C(C(=O)OC(C)C)=C(N)OC3=C2C(=O)c2ccccc2C3=O)cc2ccccc21` (stereo not drawn), the MIC in experiment [1] is 250 µg/mL (≈ 504 µM); in experiment [2], 500 µg/mL (≈ 1010 µM); in experiment [3] it was > 1000 µg/mL; in experiment [4], 250 µg/mL (≈ 504 µM); in experiment [5], 500 µg/mL (≈ 1010 µM); in experiment [6], 200 µg/mL (≈ 403 µM). Further, the MIC in experiment [7] stood at 50 µg/mL (≈ 101 µM).

For the compound `C=CCn1c(=O)c(C2C3=C(CCCC3=O)OC3=C2C(=O)c2ccccc2C3=O)cc2ccccc21` (stereo not drawn), the MIC in experiment [1] turned out to be 125 µg/mL (≈ 270 µM); in experiment [2], 250 µg/mL (≈ 539 µM); in experiment [3], 500 µg/mL (≈ 1080 µM); in experiment [4], 500 µg/mL (≈ 1080 µM); in experiment [5] it was 200 µg/mL (≈ 432 µM); in experiment [6], 200 µg/mL (≈ 432 µM). For the same compound, the MIC in experiment [7] came out at 250 µg/mL (≈ 539 µM).

For `C=CCn1c(=O)c(C2C(C(=O)OC(C)C)=C(N)OC3=C2C(=O)c2ccccc2C3=O)cc2cc(Cl)ccc21` (stereo not drawn), the MIC in experiment [1] came out at 500 µg/mL (≈ 942 µM); in experiment [2], 500 µg/mL (≈ 942 µM); in experiment [3] it was 250 µg/mL (≈ 471 µM); in experiment [4] it was 100 µg/mL (≈ 188 µM); in experiment [5], 500 µg/mL (≈ 942 µM); in experiment [6], 200 µg/mL (≈ 377 µM). Further, the MIC in experiment [7] turned out to be 100 µg/mL (≈ 188 µM).

Take `C=CCn1c(=O)c(C2C(C#N)=C(N)OC3=C2C(=O)c2ccccc2C3=O)cc2cc(C)ccc21` (stereo not drawn): the MIC in experiment [1] was 100 µg/mL (≈ 222 µM); in experiment [2], 1000 µg/mL (≈ 2220 µM); in experiment [3], 1000 µg/mL (≈ 2220 µM); in experiment [4] it was 500 µg/mL (≈ 1110 µM); in experiment [5] it was 200 µg/mL (≈ 445 µM); in experiment [6], 250 µg/mL (≈ 556 µM). Further, the MIC in experiment [7] was determined as 500 µg/mL (≈ 1110 µM).

Regarding `C=CCn1c(=O)c(C2C(C(=O)OC(C)C)=C(N)OC3=C2C(=O)c2ccccc2C3=O)cc2cc(OC)ccc21` (stereo not drawn), the MIC in experiment [1] came to 200 µg/mL (≈ 380 µM); in experiment [2] it was 1000 µg/mL (≈ 1900 µM); in experiment [3], 500 µg/mL (≈ 950 µM); in experiment [4] it was 500 µg/mL (≈ 950 µM); in experiment [5], 100 µg/mL (≈ 190 µM); in experiment [6], 250 µg/mL (≈ 475 µM). Besides, the MIC in experiment [7] came to 200 µg/mL (≈ 380 µM).

Consider `C=CCn1c(=O)c(C2C3=C(CCCC3=O)OC3=C2C(=O)c2ccccc2C3=O)cc2cc(OC)ccc21` (stereo not drawn), for which the MIC was determined as 500 µg/mL (≈ 1010 µM) in experiment [1]; 1000 µg/mL (≈ 2030 µM) in experiment [2]; 1000 µg/mL (≈ 2030 µM) in experiment [3]; 100 µg/mL (≈ 203 µM) in experiment [4]; 500 µg/mL (≈ 1010 µM) in experiment [5]; 250 µg/mL (≈ 507 µM) in experiment [6]. In addition, the MIC in experiment [7] was 20 µg/mL (≈ 40.5 µM).
